For one compound, apparent dissociation constant results are on record in PMC10096947 (2023).

The structures appear in SMILES notation.

The assay relates to DOX aptamer (DNA, aptamer) ACCATCTGTGTAAGGGGTAAGGGGTGGT
Kind of assay: electrochemical aptasensor, SWV, Langmuir isotherm fit. As to conditions: PBS 0.1 M (Na+/K+ concentrations not given), PBS pH 7.4, room temperature, 20 min incubation, immobilised aptamer.

As to `COc1cccc2c1C(=O)c1c(O)c3c(c(O)c1C2=O)C[C@@](O)(C(=O)CO)C[C@@H]3O[C@H]1C[C@H](N)[C@H](O)[C@H](C)O1`, the apparent dissociation constant stood at 2.55 µM.
